Measurements reported in patent US20210024498A1, “TETRAHYDROPYRROLE COMPOUND, PREPARATION METHOD THEREFOR, PHARMACEUTICAL COMPOSITION CONTAINING SAME, AND USE THEREOF” (MEDICONNS (SHANGHAI) BIOPHARMACEUTICAL CO., LTD, priority 2017, published 2021).

Tests used:
D2 receptor [1] = molecular target: T1, D2 receptor (Homo sapiens, UniProt P14416); assay: D2 receptor affinity assay (radioligand competition, 3H-7-OH-DPAT); assay type: binding; details: cloned D2 receptor expressed in HEK293 cell line; 3H-7-OH-DPAT 1 nM
T1 construct: expressed in transfected cells; host or cells: HEK293
Procedure: (§1) Bioactivity Test • I. D2 receptor affinity assay: The affinity of the compound to D2 receptor was determined by radioligand competition assay, and the cloned D2 receptor was expressed in HEK293 cell line. • II. D2 receptor function assay: The ability of the compound to antagonize the D2 receptor was determined using a calcium mobilization assay (FLIPR). • III. DAT receptor function assay: The ability of the compound to inhibit DAT was determined by neurotransmitter transporter absorption assay.
• Experimental buffer: 50 mM Tris-HCl, pH 7.4, 5 mM MgCl2 • Washing buffer: 50 mM Tris-HCl pH 7.4, stored at 4° C. ready for use.
• The compound and positive control 7-OH-DPAT were serially diluted with DMSO, with the initial concentration of 2 mM and 4 times serial dilution, a total of 10 concentrations. 1 μL was transferred to the designated position of the 96-well plate. • 1 μL droperidol (final concentration 10 μM) was added to the positive control well. 1 μL DMSO was added to the negative control well.
• Receptor cell membrane was diluted to 10 μg/well with corresponding experimental buffer, with 100 μL cell membrane/well.
• 3H-7-OH-DPAT was diluted to 2 nM with corresponding experimental buffer, and the final concentration was 1 nM.
• After 100 μL of cell membrane and isotope were added, respectively, the reaction plate of the D2 receptor was incubated at room temperature for 1 hour. The GF/C filter plate was soaked in 0.3% PEI solution for more than half an hour. After the reaction was completed, the cell membrane was collected on the GF/C filter plate using the […], washed 4 times with cold washing buffer, and then dried in an oven at 50° C. for 1 hour. The dried GF/C filter plate was sealed at the bottom, 50 μL of scintillation fluid was added to each well and the well was sealed. Reads were obtained by MicroBeta and the data was analyzed using GraphPad Prism 5.0.
Ki=IC50/(1+isotope concentration/Kd)

D2 receptor [2] = molecular target: T1, D2 receptor; assay: D2 receptor function assay, calcium mobilization (FLIPR); assay type: cell-based; details: HEK293, antagonism of D2 receptor
Procedure: as §1
• Cell line: HEK293 • DMEM medium (Invitrogen) • Fetal bovine serum (FBS, Invitrogen) • L-Glutamine (Invitrogen) G418 (Invitrogen) • Blasticidin (Invitrogen)
• Fluo-4 Direct Kit (Invitrogen)
• 250 mM Probenecid solution was formulated: according to the kit instructions, 1 mL of FLIPR buffer salt solution was added to 77 mg probenecid just before needed. • 2× (8 μM) Fluo-4 Direct™ loading buffer was formulated: the number of tubes in Fluo-4 Direct™ needed for the experiment was melted in advance. Just before needed, 10 ml of FLIPR buffer salt solution and 0.2 mL of 250 mM Probenecid solution were added to each tube and vortexed in dark for more than 5 minutes.
• a) One tube of cells was taken from the liquid nitrogen tank and quickly thawed in 37° C. water bath. • b) The cell suspension was added to a centrifuge tube to which the preheated 20 ml medium was added in advance. • c) The centrifuge tube was centrifuged at 1000 rpm for 5 minutes at room temperature. • d) The supernatant was slowly decanted to avoid affecting the precipitated cells. • e) The cells were resuspended with 10-30 ml medium by pipetting the cells gently with a pipette. • f) The viability and number of cells were calculated with the cell counter. • g) The cells were diluted to 1×10^5 cells/ml with medium, and inoculated in the 384-well polylysine coated cell plate at 20 μL/well. • h) The plate was incubated in an incubator at 5% CO2, 37° C. for 16 to 20 hours.
10 μL of experimental buffer salt solution was added into the cell plate according to the set program, and the fluorescence signal was read. 10 μL of agonist reference compound was further added at a given concentration to the cell plate and the fluorescence signal was read. After reading, the data was derived by “Max-Min” and “Read 90 to Maximum Allowed” methods in the software and EC80 of the corresponding cell line was calculated, and the reference compound with a concentration of 6× EC80 was prepared. • f) The FLIPR instrument software was run. 10 μL of the compound to be tested and the reference compound at a given concentration were added into the cell plate according to the set program, and the fluorescence signal was read. 10 μL of reference compound agonist was further added at a concentration of 6× EC80 to the cell plate and the fluorescence signal was read. • g) Data Analysis • Calculation formula for data in the project:
Inhibitor % activity=100−(signal value per well−average value for high dose control group of inhibitor)/(average value for DMSO control group−average value for high dose control group of inhibitor)*100%.

DAT = DAT (Homo sapiens, UniProt Q01959); assay: DAT transporter assay (neurotransmitter transporter absorption assay); assay type: cell-based
Procedure: as §1
• HBSS1×, REPES 20 mM, BSA 0.1%.
• Lyophilized fluorescent dye 1 vial, Assay buffer 10 mL.
• BTCP—hydrochloride (Sigma)
• i) The medium was preheated in 37° C. water bath in advance for more than 30 minutes for later use. • j) The preheated medium was taken out, disinfected with 75% alcohol, and put into a biosafety cabinet. • k) The cultured cells were taken out from the […], and the medium was removed by a vacuum pump. 1× DPBS was added, incubated for a moment, and then removed by a vacuum pump. Appropriate amount of 0.05% trypsin-EDTA was added for cell digestion. The digestion was terminated by 10% FBS medium, and the cells were pipetted and dispersed. • l) The dispersed cells were transferred into a 50 mL centrifuge tube with a pipette.
• a) The reference compound was diluted in a ratio of 1:3 to 10 concentration gradients with the detection buffer containing 0.1% BSA, with the highest concentration being 2 μM. The compound to be tested was diluted to 20 uM with the detection buffer containing 0.1% BSA. • b) A centrifuge (750 rpm, 15 s) was used to spin off the culture solution in the cell culture plate, and the compound solution in step 1 was transferred to the cell culture plate (25 uL/well). • HC (High control): 25 μL of 0.1% BSA detection buffer containing 0.2% DMSO. • LC (Low control): 25 μL of solution containing 2 μM positive antagonist. • c) After centrifugation at 300 rpm for 15 seconds, the plate was incubated at 37° C. for 30 minutes. After the incubation with the compound was completed, a dye solution (25 μL/well) was added and incubated at 37° C. for 30 minutes.
Inhibitor % activity=100−(signal value per well−average value for LC well)/(average value for H well−average value for LC well)*100%.

D4 receptor = molecular target: T2, D4 receptor (Homo sapiens, UniProt P21917); details: Bioorg. Med. Chem. 17 (2009) 1716-1723; cited from earlier work
T2 sequence (P21917 1-419): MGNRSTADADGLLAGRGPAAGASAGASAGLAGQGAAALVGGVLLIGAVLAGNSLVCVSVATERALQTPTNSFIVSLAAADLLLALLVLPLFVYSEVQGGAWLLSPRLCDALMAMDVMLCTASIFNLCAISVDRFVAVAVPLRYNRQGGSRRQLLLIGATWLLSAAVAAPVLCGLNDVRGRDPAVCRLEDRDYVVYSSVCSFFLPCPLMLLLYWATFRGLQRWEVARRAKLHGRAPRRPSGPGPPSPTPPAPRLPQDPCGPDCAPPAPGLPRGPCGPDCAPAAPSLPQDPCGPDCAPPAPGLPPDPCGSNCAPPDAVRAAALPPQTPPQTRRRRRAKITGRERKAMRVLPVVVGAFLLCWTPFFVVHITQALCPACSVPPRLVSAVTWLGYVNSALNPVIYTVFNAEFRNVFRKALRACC

D2 receptor [3] = molecular target: T1, D2 receptor; details: Bioorg. Med. Chem. 17 (2009) 1716-1723; cited from earlier work
[4] = tested on: PCP-induced high locomotor activity in mice; assay: Phencyclidine (PCP) induced high locomotor activity (LMA) in mice; assay type: in vivo; set-up: Distance resulting from the activity, First 30 min / Distance resulting from the activity, Last 30 min: unit not given here; details: PCP 5.0 mg/kg s.c.; 5 mg/kg p.o. (low dose group; olanzapine positive control); male ICR mice
Text: • 1. The effect of the compound on phencyclidine (PCP) induced high locomotor activity (LMA) in mice was detected.
The test compound MDC was milky white powder and stored in a shade and cool place (freshly formulated with 1% DMSO before use). […] Phencyclidine (PCP), purchased from Sigma Aldrich, was a grayish white powder (freshly formulated with normal saline before use). 1% DMSO was formulated by diluting pure DMSO (purity>99.5, purchased from Sigma-Aldrich) with normal saline.
(§2) Male ICR mice having weight 22±2 g were kept at 8 mice/cage with 12/12 hours light/dark cycle, temperature 23° C.±1° C., humidity 50% to 60%, free to eat and drink water.
The administration volume was 0.1 ml/10 g body weight; PCP was formulated with normal saline at a dose of 5 mg/kg.
The test compound MDC and olanzapine were administered by gavage and PCP was administered by subcutaneous injection.
(§3) After one week of acclimation, mice were randomly divided into 6 groups according to their body weight: negative control group, model group, positive control group, and low dose group, medium dose group and high dose group for the test compound. 8-10 animals/group.
(§4) Group 1: Negative control group: Normal saline (s.c.)+1% DMSO (10.0 ml/kg, p.o.);
Group 2: Model group: PCP (5.0 mg/kg, s.c.)+1% DMSO (10.0 ml/kg, p.o.);
Group 4: MDC low dose group: PCP (5.0 mg/kg, s.c.)+MDC (5 mg/kg, p.o.);
Group 5: MDC medium dose group: PCP (5.0 mg/kg, s.c.)+MDC (10 mg/kg, p.o.);
Group 6: MDC high dose group: PCP (5.0 mg/kg, s.c.)+MDC (20 mg/kg, p.o.).
After oral administration, the animals were immediately placed in a locomotor activity box and recorded by Shanghai Jiliang ( ? ) animal video analysis system for 1 hour.
(§5) After the experiment, the activity of the animals within 1 hour was analyzed using the trajectory analysis software of Shanghai Jiliang animal video analysis system to obtain the total distance resulting from the activity.

[5] = tested on: Amphetamine-induced high locomotor activity in mice; assay: Amphetamine-induced high locomotor activity (LMA) in mice; assay type: in vivo; set-up: Distance resulting from the activity, First 30 min / Distance resulting from the activity, Last 30 min: unit not given here; details: Amphetamine 1.0 mg/kg s.c.; 5 mg/kg p.o. (low dose group; olanzapine positive control); male ICR mice
Procedure: The test compound MDC was a milky white powder and stored in a shade and cool place (formulated with 1% DMSO before use). […] Amphetamine, purchased from Sigma-Aldrich, was a white powder (formulated with normal saline before use). 1% DMSO was formulated by diluting pure DMSO (purity>99.5, purchased from Sigma) with normal saline.
as §2
The administration volume was 0.1 ml/10 g body weight; Amphetamine was freshly formulated with normal saline at a dose of 1.0 mg/kg and administered subcutaneously.
as §3, §4
Group 2: Model group: Amphetamine (1.0 mg/kg, s.c.)+1% DMSO (10.0 ml/kg, p.o.);
Group 4: MDC low dose group: Amphetamine (1.0 mg/kg, s.c.)+MDC (5 mg/kg, p.o.);
Group 5: MDC medium dose group: Amphetamine (1.0 mg/kg, s.c.)+MDC (10 mg/kg, p.o.);
Group 6: MDC high dose group: Amphetamine (1.0 mg/kg, s.c.)+MDC (20 mg/kg, p.o.).
After administration, the animals were immediately placed in a locomotor activity box and recorded by Shanghai Jiliang animal video analysis system for 1 hour.
as §5

Sequence of DAT (Q01959 whole entry, species assumed): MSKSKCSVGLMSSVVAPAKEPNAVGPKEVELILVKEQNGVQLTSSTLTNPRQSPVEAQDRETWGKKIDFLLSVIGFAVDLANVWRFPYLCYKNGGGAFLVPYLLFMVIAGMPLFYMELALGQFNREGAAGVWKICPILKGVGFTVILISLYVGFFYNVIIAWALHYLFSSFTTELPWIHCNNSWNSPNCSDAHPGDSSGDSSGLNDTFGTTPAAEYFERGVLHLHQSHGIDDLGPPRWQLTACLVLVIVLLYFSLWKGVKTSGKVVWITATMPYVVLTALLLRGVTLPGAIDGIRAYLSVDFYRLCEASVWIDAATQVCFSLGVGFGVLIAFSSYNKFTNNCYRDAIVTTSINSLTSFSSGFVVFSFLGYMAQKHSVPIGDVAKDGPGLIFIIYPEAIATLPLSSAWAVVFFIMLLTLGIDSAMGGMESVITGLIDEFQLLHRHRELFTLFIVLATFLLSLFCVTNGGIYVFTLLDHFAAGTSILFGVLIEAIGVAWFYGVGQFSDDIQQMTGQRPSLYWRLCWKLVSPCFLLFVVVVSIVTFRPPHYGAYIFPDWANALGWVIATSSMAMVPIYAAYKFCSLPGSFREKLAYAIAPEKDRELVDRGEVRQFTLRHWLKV
T1 sequence (P14416 whole entry): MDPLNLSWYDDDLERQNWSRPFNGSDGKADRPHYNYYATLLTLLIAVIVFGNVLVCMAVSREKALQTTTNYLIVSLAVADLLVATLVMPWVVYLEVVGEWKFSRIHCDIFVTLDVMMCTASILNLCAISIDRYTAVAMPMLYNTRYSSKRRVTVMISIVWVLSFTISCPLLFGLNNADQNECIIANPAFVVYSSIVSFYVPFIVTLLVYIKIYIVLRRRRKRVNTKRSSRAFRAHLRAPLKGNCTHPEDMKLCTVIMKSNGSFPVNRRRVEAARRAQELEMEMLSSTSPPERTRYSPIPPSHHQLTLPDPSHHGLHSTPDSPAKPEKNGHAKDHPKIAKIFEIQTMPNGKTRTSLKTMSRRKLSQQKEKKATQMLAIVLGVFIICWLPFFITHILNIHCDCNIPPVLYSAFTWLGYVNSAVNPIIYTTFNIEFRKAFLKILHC

IC50 (DAT) [nM] | Compound | IC50 (D2 receptor [1]) [nM] | IC50 (D2 receptor [2]) [nM] | also measured
52.8 | c1ccc2c(CN3CCC(c4ccc5[nH]nnc5c4)C3)c[nH]c2c1 (stereo not shown) [MDC-161502-040] |  |  | 
191 | c1ccc2c(CN3CCC(c4ccc5nc[nH]c5c4)C3)c[nH]c2c1 (stereo not shown) [MDC-161502-037] | 461 | 269 | 
 | OC1(c2ccc(Cl)cc2)CCN(Cc2c[nH]c3ccccc23)C1 (stereo not shown) [compound 4] |  |  | D4 receptor antagonism (in words) (D4 receptor): moderate intensity of D4 receptor antagonism; Antagonism to D2 receptor (in words) (D2 receptor [3]): substantially no antagonism to D2 receptor
 | Cc1cc2c(s1)Nc1ccccc1N=C2N1CCN(C)CC1 [Olanzapine, olanzapine, reference compound] |  |  | Distance resulting from the activity, First 30 min [4]: 208491; Distance resulting from the activity, Last 30 min [4]: 80518; Distance resulting from the activity, First 30 min [5]: 227653; Distance resulting from the activity, Last 30 min [5]: 158673
87.5 | c1ccc2c(CN3CCC(c4cccc5[nH]ncc45)C3)c[nH]c2c1 (stereo not shown) [MDC-161502-038] | 10.2 | 6.22 | 
841 | c1ccc2c(CN3CCC(c4ccc5cn[nH]c5c4)C3)c[nH]c2c1 (stereo not shown) [MDC-161502-036] | 298 | 471 | 

Compound | IC50 (DAT) [nM] | IC50 (D2 receptor [1]) [nM] | IC50 (D2 receptor [2]) [nM] | also measured
Oc1cc(C2CCN(Cc3c[nH]c4ccccc34)C2)ccc1F (stereo not shown) [MDC-161502-031] | 28.3 | 22.4 | 14.5 | 
Oc1cccc(C2CCN(Cc3c[nH]c4ncccc34)C2)c1 (stereo not shown) [MDC-161502-034] | 685 | 2.02 | 1.99 | 
Oc1cccc(C2CCN(Cc3n[nH]c4ccccc34)C2)c1 (stereo not shown) [MDC-161502-033] | 111 | 6.83 | 2.28 | 
